In patent US7531320B2, “Modulation of β-catenin/TCF-activated transcription” (priority 2003, dated 2009):
pIC50: −log10 of the molar value.

Tests used:
Type in all cases: cell-based, human
[1] = system: β-catenin/TCF reporter gene construct; test: β-catenin/TCF luciferase reporter assay in SW480 cells
Description: FIG. 1. COMPOUND 1 inhibits β-catenin/TCF transcription. • A(i) and A(ii). Structures of COMPOUND 1, COMPOUND 2, COMPOUND 3, COMPOUND 4, and COMPOUND 5. • B(i) and B(ii). […] SW480 cells (10^5), (FIG. 1B(i)), were transfected with β-catenin/TCF luciferase construct. Cells were treated with COMPOUND 1 (1-64 μM). 24 hours post treatment lysates were prepared and subjected to dual luciferase assay. The data is represented in different form in FIG. 1B(ii). • C. COMPOUND 1 has no effect on NFAT reporter construct. Stably transfected Jurkat cells, right panel, with an NFAT reporter construct, were stimulated with PMA (10 ng/ml)/lonomycin (1 μg/ml), and treated with COMPOUND 1 (0.781-50 μM). 24 hours post treatment lysates were prepared and subjected to dual luciferase assay. All experiments were performed in duplicate and the values plotted as means +/−standard deviation. • D. CBP is the molecular target of COMPOUND 1. Nuclear extracts of SW480 cells were incubated with streptavidin-agarose beads coated with COMPOUND 2 (25 μM). Beads were washed 3 times and the eluted were subjected to gel electrophoresis and immunoblotting, with anti-CBP antibodies. […] The lysates were desalted using G-25 1 cc columns (Pharmacia) to remove the unbound ^14C-labeled-COMPOUND 1, and ^14C-labeled-COMPOUND 1 incorporation was measured. […]

[2] = system: caspase-3/7 in SW480 cells; test: Caspase-3/7 activity assay, SW480 cells; details: 25 μM, 24 hours, compared to CCD18Co cells
Description: (§1) FIG. 6. • A. COMPOUND 1 arrests cells in G1. FACS analysis was performed on SW480 (lower panel) and HCT116 (upper panel) cells treated for 24 hours with either COMPOUND 1 (25 μM) (right) or control (0.5% DMSO (left). 5.5×10^6 cells were fixed and stained with propidium iodide (PI). G0/G1, S, and G2/M are indicated by arrows. • B. COMPOUND 1 selectively activates caspases in colon carcinoma cell lines. SW480 and HCT116 (left graph) cells (10^5) along with the normal colonocytes, CCD18Co (right graph) were treated with either control (0.5% DMSO) or COMPOUND 1 (25 μM). 24 hours post treatment, cells were lysed and the caspase-3/7 enzymatic activities were measured. Relative fluorescence units (RFU) were calculated by subtracting the unit values of the blank (control, without cells) from the treated samples (COMPOUND 1 or control) and plotted.
SW480, HCT116, and CCD18Co cells were plated at 10^5 cells per well (96-well plates) for 24 hours prior to treatment. 25 μM of COMPOUND 1 or control (0.5% DMSO) was added to each well. 24 hours post treatment, cells were lysed and caspase activity was measured using a caspase-3/7 activity kit (Apo-One Homogeneous caspase-3/7 assay, #G77905, Promega). Relative fluorescence units (RFU) were obtained by subtracting the unit values of the blank (control, without cells) from the experimental measured values. […]

SW480 cells = test: FACS cell cycle analysis (propidium iodide), SW480 cells; details: 25 μM, 24 hours
Description: as §1
For FACS analysis, approx. 5×10^6 cells from PNRI-treated or vehicle-treated were fixed with 70% chilled ethanol and stored at −20° C. for at least 30 minutes. […] 10,000 stained cells for each sample were acquired using Beckman Coulter EPICS XL-MCL Flow Cytometry and the percentage of cells in different phase of the cell cycle was determined by Expo32 ADC software (Coulter Corporation, Miami, Fla., 33196). […]

O=C1C(Cc2ccc(O)cc2)N2C(=O)CCN(C(=O)NCc3ccccc3)C2CN1Cc1cccc2ccccc12 (stereo not shown) [COMPOUND 1]
Change of IC50 of COMPOUND 1 on transfection of increasing concentration of CBP ([1]; SW480 cells cotransfected with CBP (not β-catenin), dose-dependent): increased the IC50
pIC50 ([1]; SW480 cells, 1-64 μM, 24 hours post treatment, dual luciferase assay): 5.30
Caspase-3/7 activity [2]: specifically and significantly activated
Cell cycle distribution (DNA content by FACS) (SW480 cells): increased accumulation at G1/S-phase
